“Also recorded” adds a separate entry of the source.
Columns and labels:
[1] = Stability in human liver microsomes; assay type: in vitro ADME; conditions: both sexes
Description: Compounds were tested for stability in human liver microsomes.
Experimental Procedure • Mixed-gender human liver microsomes (Lot #1210347) were purchased from XenoTech. The reaction mixture, minus NADPH, was prepared as described below. The test article was added into the reaction mixture at a final concentration of 1 μM. The control compound, testosterone, was run simultaneously with the test articles in a separate reaction. An aliquot of the reaction mixture (without cofactor) was equilibrated in a shaking water bath at 37° C. for 3 minutes. The reaction was initiated by the addition of the cofactor, and the mixture was incubated in a shaking water bath at 37° C. Aliquots (100 μL) were withdrawn at 0, 10, 20, 30, and 60 minutes. Test article and testosterone samples were immediately combined with 400 μL of ice-cold 50/50 acetonitrile (ACN)/H2O containing 0.1% formic acid and internal standard to terminate the reaction. […] Half-lives and clearance were calculated using GraphPad software, fitting to a single-phase exponential decay equation. […]
Note (a): When the calculated half-life is longer than the duration of the experiment, the half-life is expressed as being greater than the longest incubation time. Note (b): Intrinsic clearance (CLint) was calculated based on CLint=k/P, where k is the elimination constant and P is the protein concentration in the incubation.

p300 = p300 (Homo sapiens, UniProt Q09472); assay: In vitro acetylation assay (p300, histone 3 Lys 18 / Lys 27, western blot); assay type: biochemical; conditions: compound in DMSO; for EC50: read-out: H3-Lys 18 EC50; for H3-Lys 27 EC50 / H3-Lys 27 IC50: Lys 27 of histone 3
Description: The aim of the in vitro acetylation assay is to measure the enzymatic activity of the various compounds towards p300. Results are provided in FIG. 3A to FIG. 7B for average values of lysine residue acetylation (continuous line) and their standard error range measured in the absence of compound and DMSO, wherein “n” represents the number of replicates.
First, the drug is prepared:
Second, dilute p300 in AM1 buffer to a concentration of 40 ng/μL (final concentration in the reaction 20 ng/μL). This is accomplished by diluting 1 μL of p300 (at 0.4 μg/μL) into […] of AM1 buffer.
Third, prepare the Master Mix. Prepare the Master Mix in low protein binding tubes (ThermoFisher Cat. No. 90410), 20 μL system.
Incubate reactions at 30° C. for 30 minutes.
Incubate reactions at 30° C. for 1 hour.
Fourth, perform the western blot assay. • Add 6.7 μL of Laemmli Sample Buffer 4× (Bio-Rad Laboratories Cat. No. 161-0737) for each reaction and boil samples at 95° C. for 5 min. • Charge 10 μL for each sample in 2 Tris Glycine 4-15% gels (Bio-Rad Laboratories Cat. No. 456-1086). Running Buffer: Tris-Glycine 1× (pour in the cell up to the writing “2 gels”). • Run at 90 V for 1 hour (until the gel front reaches the green line of cell). • Semi-dry transfer with Trans-Blot® Turbo™ Blotting System from Bio-Rad Laboratories (Trans-Blot® Turbo™ RTA midi PVDF transfer kit Cat. No1704275). • Activate PVDF membrane in methanol for 5 minutes and then wet in Trans-Blot® Turbo™ transfer buffer. • Wet stacks in transfer buffer. • Transfer at 23 V 1.3 A for 7 minutes. • Blocking buffer: 5% Non-Fat milk in TBST (tween 0.1%) 1 hour at room temperature. • Cut the membranes to get Ac-His 3 at 17 kDa and p300 at 300 kDa. • Incubate with primary antibodies overnight at 4° C. • The day after, make 3 washes in TBST (Tween 0.1%) of 10 minutes. • Incubate with secondary antibody at room temperature for 1 hour. • Make 3 washes in TBST (Tween 0.1%) of 5 minutes. • Incubate membranes with ECL (SuperSignal West Dura Extended Duration Substrate from ThermoFisher) for 5 minutes at room temperature. • Acquire the image with ChemiDoc Odyssey Fc 2 minutes.
To detect total H3 (loading control), strip the membranes with Restore™ Western Blot Stripping Buffer according to the manufacturer protocol.
Various compounds were tested for enzymatic activity with respect to Lys 18 and Lys 27 of histone 3. EC50 is indicated for activators and IC50 for inhibitors respectively.

[2] = test system: hippocampal slices from WT mice perfused with oTau; assay: oTau-induced LTP deficit in hippocampal slices
Excerpt: against tau induced synaptic dysfunction. Oligomeric tau caused a defect of LTP. YF2 was applied to hippocampal slices either alone or concurrently with oligomeric tau. […] FIG. 8 is a graph illustrating that YF2 rescues oTau-induced LTP deficits. LTP was impaired in hippocampal slices from WT mice perfused with oTau. The concurrent treatment with YF2 and oTau reestablished normal LTP. There was no impairment in slices treated with YF2 or vehicle. The horizontal solid bar represents oTau perfusion while the horizontal dashed bar represents drug treatment. The three arrows correspond to the theta-burst stimulation. Two-Way ANOVA Vehicle vs. oTau: F(1, 21)=21.32, p=0.0001; Vehicle vs. YF2: F(1, 21)=0.200, p=0.6593; Vehicle vs. YF2+oTau: F(1, 22)=0.3455, p=0.563; YF2 vs. oTau: F(1, 22)=13.72, p=0.0012; YF2 vs. YF2+oTau: F(1, 23)=0.00043, p=0.984; YF2+oTau vs. oTau: F(1, 23)=31.52, p<0.0001.

[3] = test system: mice administered with oTau; assay: 2 day radial arm water maze (RAWM), spatial short-term memory; assay type: in vivo; conditions: oTau 500 nM, YF2 5 mg/kg
Description: Oligomeric tau caused a defect of spatial memory and associative memory. YF2 was injected in mice either alone or concurrently with oligomeric tau. The compound rescued the oligomeric tau induced defect in memory. […] The performance in the RAWM was impaired in mice administered with oTau (500 nM). […] The performance was not impaired when mice were treated with only YF2 or vehicle.

[4] = test system: mice administered with oTau; assay: Contextual fear memory; assay type: in vivo; conditions: YF2 plus oTau vs oTau, 24 hrs after the electric shock
Excerpt: A statistical significant difference is visible when comparing all groups during testing for contextual fear memory at 24 hrs after the electric shock (ANOVA among all groups: F(3, 53)=3.051 p=0.0364).

[5] = Lys 18 of histone 3, EC50 for activators

Chain of p300 (Q09472 whole entry, species assumed): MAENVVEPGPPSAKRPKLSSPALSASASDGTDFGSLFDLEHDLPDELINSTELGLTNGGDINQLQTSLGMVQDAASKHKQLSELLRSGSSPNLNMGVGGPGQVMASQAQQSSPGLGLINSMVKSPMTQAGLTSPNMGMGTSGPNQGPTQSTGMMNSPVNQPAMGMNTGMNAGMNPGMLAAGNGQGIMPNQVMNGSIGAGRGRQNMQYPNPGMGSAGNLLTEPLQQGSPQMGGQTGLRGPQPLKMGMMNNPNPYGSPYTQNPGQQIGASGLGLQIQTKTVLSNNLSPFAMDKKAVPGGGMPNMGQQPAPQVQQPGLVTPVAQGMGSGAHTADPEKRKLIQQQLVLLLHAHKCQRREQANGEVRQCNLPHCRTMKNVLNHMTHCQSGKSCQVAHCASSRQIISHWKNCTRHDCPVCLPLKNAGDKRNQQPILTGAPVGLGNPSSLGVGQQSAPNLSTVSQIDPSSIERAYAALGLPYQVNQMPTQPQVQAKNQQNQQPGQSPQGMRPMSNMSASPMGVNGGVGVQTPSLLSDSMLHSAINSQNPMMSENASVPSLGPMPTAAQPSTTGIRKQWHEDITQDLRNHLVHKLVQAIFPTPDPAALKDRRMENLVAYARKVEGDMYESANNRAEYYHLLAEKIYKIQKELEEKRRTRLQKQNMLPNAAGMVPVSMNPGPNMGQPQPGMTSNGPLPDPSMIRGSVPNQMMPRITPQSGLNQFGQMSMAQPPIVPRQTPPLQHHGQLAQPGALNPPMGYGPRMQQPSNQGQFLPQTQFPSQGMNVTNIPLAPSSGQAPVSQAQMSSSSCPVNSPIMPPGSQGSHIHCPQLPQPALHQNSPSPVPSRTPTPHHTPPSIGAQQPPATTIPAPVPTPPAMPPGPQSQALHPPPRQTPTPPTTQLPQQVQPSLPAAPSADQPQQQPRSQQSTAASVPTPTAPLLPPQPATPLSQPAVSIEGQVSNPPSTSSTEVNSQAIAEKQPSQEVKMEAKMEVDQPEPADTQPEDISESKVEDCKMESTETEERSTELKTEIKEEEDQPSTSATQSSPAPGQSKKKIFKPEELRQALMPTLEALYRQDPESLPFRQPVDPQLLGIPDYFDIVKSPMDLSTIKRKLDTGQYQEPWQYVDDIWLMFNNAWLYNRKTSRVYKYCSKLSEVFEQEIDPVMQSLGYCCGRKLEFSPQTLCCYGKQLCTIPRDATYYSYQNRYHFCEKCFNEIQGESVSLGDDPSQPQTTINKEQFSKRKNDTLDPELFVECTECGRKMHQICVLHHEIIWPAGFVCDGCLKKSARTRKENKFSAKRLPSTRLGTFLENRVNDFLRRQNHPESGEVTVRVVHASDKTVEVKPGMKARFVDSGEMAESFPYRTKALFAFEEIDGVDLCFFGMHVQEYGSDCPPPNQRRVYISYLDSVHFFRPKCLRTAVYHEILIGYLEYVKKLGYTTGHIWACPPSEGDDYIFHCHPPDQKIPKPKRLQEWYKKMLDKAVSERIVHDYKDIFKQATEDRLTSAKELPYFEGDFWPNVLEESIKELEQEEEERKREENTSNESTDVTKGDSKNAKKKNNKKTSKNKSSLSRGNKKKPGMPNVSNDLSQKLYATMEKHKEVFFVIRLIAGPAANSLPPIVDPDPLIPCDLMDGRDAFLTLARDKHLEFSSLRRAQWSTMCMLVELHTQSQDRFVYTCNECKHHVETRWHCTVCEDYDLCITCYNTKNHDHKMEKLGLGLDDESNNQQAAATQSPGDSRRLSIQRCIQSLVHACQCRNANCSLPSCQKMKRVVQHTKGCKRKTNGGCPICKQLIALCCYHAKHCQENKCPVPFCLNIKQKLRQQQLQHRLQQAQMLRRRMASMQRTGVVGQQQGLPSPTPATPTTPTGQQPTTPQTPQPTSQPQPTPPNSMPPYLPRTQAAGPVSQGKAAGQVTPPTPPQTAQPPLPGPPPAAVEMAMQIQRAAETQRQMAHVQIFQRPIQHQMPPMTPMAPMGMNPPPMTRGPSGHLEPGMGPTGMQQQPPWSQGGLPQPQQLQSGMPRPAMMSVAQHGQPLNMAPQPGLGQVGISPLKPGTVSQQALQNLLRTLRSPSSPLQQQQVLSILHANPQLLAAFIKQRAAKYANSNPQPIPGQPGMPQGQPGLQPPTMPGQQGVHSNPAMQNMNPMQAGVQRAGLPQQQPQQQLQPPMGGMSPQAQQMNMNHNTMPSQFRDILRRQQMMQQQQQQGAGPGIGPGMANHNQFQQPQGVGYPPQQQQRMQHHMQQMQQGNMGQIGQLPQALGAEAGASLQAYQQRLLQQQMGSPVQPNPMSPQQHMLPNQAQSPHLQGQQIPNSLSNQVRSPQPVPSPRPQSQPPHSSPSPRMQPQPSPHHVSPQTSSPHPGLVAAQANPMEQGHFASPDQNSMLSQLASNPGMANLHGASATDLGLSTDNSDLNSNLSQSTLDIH

C[C@]12CC[C@H]3[C@@H](CCC4=CC(=O)CC[C@@]43C)[C@@H]1CC[C@@H]2O [Testosterone, testosterone]
half-life at 1 μM ([1]; pH 7.4, 1 μM, single-phase exponential decay fit): 40.6 min | microsomal CLint at 1 μM ([1]; pH 7.4, CLint=k/P): 34.1 µL/min/mg

CCOc1cccc(OCCN2CCOCC2)c1C(C)Nc1ccc(O)c(C(F)(F)F)c1 (centres unmarked) [JF2]
EC50 (p300; [5]): 138 nM | H3-Lys 27 EC50 (p300; EC50 for activators): NO ACTIVITY | H3-Lys 27 IC50 (p300; IC50 for inhibitors): NO ACTIVITY

FC(F)(F)c1cc(N2COc3ccccc3C2)ccc1Cl [JF17]
EC50 (p300; [5]): 103 nM

CCOc1cccc(OCCN(C)C)c1C(=O)Nc1ccc(Cl)c(C(F)(F)F)c1 [YF2]
LTP with compound alone ([2]; hippocampal slices treated with YF2 alone): no impairment | effect on oligomeric tau induced defect in long-term potentiation ([2]; hippocampal slices, concurrent treatment with YF2 and oTau): rescued the oligomeric tau induced defect in long-term potentiation; also recorded: rescues oligomeric-Tau (oTau)-induced LTP deficits | RAWM performance, oTau-induced deficit [3]: rescued the deficit; also recorded: rescues oTau-induced defects | contextual fear memory (freezing), oTau-induced deficit [4]: rescues oTau-induced deficit in contextual fear memory; also recorded: rescues oTau-induced defects in contextual fear memory

CN(C)CCOc1cccc2c1C(=O)N(c1ccc(Cl)c(C(F)(F)F)c1)C2=O [JF19]
H3-Lys 18 EC50 (p300; [5]): NO ACTIVITY | H3-Lys 18 IC50 (p300; Lys 18 of histone 3, IC50 for inhibitors): NO ACTIVITY | H3-Lys 27 EC50 (p300; EC50 for activators): NO ACTIVITY | H3-Lys 27 IC50 (p300; IC50 for inhibitors): NO ACTIVITY

Reference: patent US20220125748A1, “HISTONE ACETYLTRANSFERASE (HAT) REGULATORS AND USES THEREOF” (The Trustees of Columbia University in the City of New York, priority 2019, published 2022)
